Data as given in US20200368322A1, “METHODS OF IDENTIFYING AND USING AGENTS FOR TREATING DISEASES ASSOCIATED WITH INTESTINAL BARRIER DYSFUNCTION” (Yeda Research and Development Co. Ltd., priority 2018, published 2020).

Columns and labels:
[1] = system: Caco-2 cells; test: In vitro barrier assessment: ZO-1 staining and junction tortuosity of Caco-2 cells treated with glucose; type: cell-based; conditions: glucose plus 2-DG
Protocol: Caco-2 cells were purchased from ATCC. Cells were routinely grown in regular tissue culture medium (DMEM, 10% FCS, penicillin/streptomycin, GlutaMAX, 1 g/l glucose). For experiments, cells were seeded onto 96-well glass-bottom plates coated with fibronectin 25 μg/ml 70 000 cells/well and allowed to grow for 48 hours to form confluent monolayer before treatment with indicated concentration of glucose for indicated time period. […] Tight junctions labeling was performed with primary anti-ZO-1 mouse monoclonal antibodies (BD Transduction Laboratories) 1.25 μg/ml and secondary Alexa Fluor 488 goat anti-mouse antibodies (Invitrogen) 10 μg/ml. […] Cell images were segmented using Morphological Segmentation ImageJ plug-in and junction tortuosity was calculated as a ratio between junction length and Euclidian distance between its ends.
Hyperglycemia Reprograms Intestinal Epithelial Cells To determine whether glucose acted directly on intestinal epithelial cells to affect barrier function, an in vitro system of cultured intestinal epithelial (Caco-2) cells was used. […] Tight junction integrity was analyzed through automated high-throughput analysis of ZO-1 staining patterns. […] Global reprogramming of the epithelial transcriptome was detected in hyperglycemic mice (FIG. 41), in which more than 1,000 genes were differentially expressed compared to vehicle-treated controls (FIG. 4J). […]

[2] = system: microbial pattern recognition receptor (PRR) ligands; test: Quantification of microbial products at systemic sites (PRR reporter cell lines); type: in vivo, mouse; conditions: STZ-treated mice given the agent (insulin 0.25 U per day; 2-DG i.p. twice daily 5 mg)
Protocol: (§1) To induce hyperglycemia, streptozotocin (STZ, Sigma-Aldrich) was diluted freshly in PBS and injected i.p. at 100 mg/kg at two consecutive days. Control mice were injected with PBS. Serum glucose measurements were performed using glucose strips (Perrigo). Hyperglycemic mice were used for further experimentation 2-3 weeks after STZ injection). For continuous insulin administration, ALZET osmotic pumps were used. Pumps were implanted subcutaneously in the back of the mice for 4 weeks. Insulin was delivered at 0.25 U/day. 2-deoxyglucose (2-DG) was injected i.p. twice daily at 5 mg per injection as previously described (47). Injections were performed for 10 consecutive days. Leptin antagonist was administered daily by intraperitoneal injection of 25 mg/kg as previously described (18). The following PRR reporter cell lines were obtained from Invivogen (HEK-Blue TLR and NLR reporter cell lines): TLR2, TLR3, TLR4, TLR5, TLR7, TLR9, NOD1, NOD2. Extracts from spleen, liver, and serum were homogenized and added to reporter cell lines incubated with HEK-Blue detection medium (Invivogen) according to the manufacturer's instructions.

[3] = system: Citrobacter rodentium; test: Citrobacter rodentium infection (bioluminescence, tissue CFU), Example 1; type: in vivo, mouse
Protocol: as §1, with “(18).” for “(18). The following PRR reporter cell lines were obtained from Invivogen (HEK-Blue TLR and NLR reporter cell lines): TLR2, TLR3, TLR4, TLR5, TLR7, TLR9, NOD1, NOD2. Extracts from spleen, liver, and serum were homogenized and added to reporter cell lines incubated with HEK-Blue detection medium (Invivogen) according to the manufacturer's instructions.”
Mice were infected by oral gavage with 200 μl of an overnight culture of LB containing approximately 1×10^9 colony-forming units (CFU) of a kanamycin-resistant, luciferase-expressing derivative of C. rodentium DBS100 (ICC180) as previously described (16). For in vivo bioluminescent imaging, mice were anesthetized with Ketamine/Xylazine. Bioluminescence was quantified using an IVIS2000 instrument and Living Image software (Perkin Elmer). For ex vivo luminescence analysis, colons were resected, extensively washed from all fecal matter and immediately imaged. For CFU counts, tissues were collected, weighed and homogenized in 1 ml of sterile PBS. Tissue homogenates were serially diluted in PBS and plated on to LB kanamycin plates, incubated overnight at 37° C., and bacterial colonies were enumerated the following day, normalizing them to the tissue weight.

[4] = system: intestinal epithelial cells; test: RNA-sequencing of purified intestinal epithelial cells; type: in vivo, mouse; conditions: STZ-treated mice, 2-DG administration
Protocol: Intestinal tissue was excised from mice, thoroughly rinsed with ice-cold PBS to clean the tissue from fecal matter, and opened longitudinally. The tissue was then cut into pieces of 1 cm length and incubated in HBSS containing 2 mM EDTA and 1 mM DTT at 37° C. for 30 mins while shaking at 130 rpm. Epithelial cells were collected, filtered, centrifuged, and subsequently stained with anti-EpCAM and anti-CD45 antibodies (Biolegend) for 30 mins on ice. Cells were then washed, resuspended and sorted into lysis/binding buffer (Life Technologies) using a FACS-FUSION cell sorter (BD).
10^4 cells from each population were sorted into 80 μl of lysis/binding buffer (Life Technologies). mRNA was captured with 12 μl of Dynabeads oligo(dT) (Life Technologies), washed, and eluted at 70° C. with 10 μl of 10 mM Tris-Cl (pH 7.5). A derivation of MARS-seq was used as described (51). An average of 1 million reads was sequenced per library (Illumina NextSeq). The reads were aligned to the mouse reference genome (NCBI 37, mm9) using TopHat v2.0.10 (52) with default parameters. Expression levels were calculated and normalized using ESAT software (garberlabdotumassmeddotedu/software/esat). Duplicate reads were filtered if they aligned to the same base and had identical UMIs. […]

[5] = system: mice with DSS-induced colitis; conditions: putrescine oral gavage 200 mg/kg twice daily; 2% DSS in drinking water
Protocol: (§2) For putrescine treatment, mice received putrescine by oral gavage with a dose of 200 mg/kg twice daily for 10 days prior to and during DSS treatment or Citrobacter rodentium infection.

[6] = system: focal adhesions of Caco2 cells; test: Caco2 cell-matrix focal adhesions (paxillin staining); type: cell-based, human; conditions: 10 mM acetyl-proline, 1 mM putrescine, 10 mM histamine, 5 mM spermine
Protocol: (§3) CaCo-2 cells were purchased from ATCC. Cells were routinely grown in regular tissue culture medium (DMEM, 10% FCS, penicillin/streptomycin, GlutaMAX). For experiments with differing glucose concentrations, cells were routinely cultured in low-glucose DMEM (1 g/l glucose). Cells were seeded onto 96-well glass-bottom plates coated with either fibronectin or collagen 70 000 cells/well and allowed to grow for 24 hours to form confluent monolayer before indicated treatments.
(§4) For high resolution images of manually selected representative fields, a DeltaVision wide field fluorescent microscope (GE Healthcare) equipped with 40×UPlanFLN or 60×/1.42 PlanApo N oil objective (Olympus) was used. For multi-well plate scanning, the following automated imaging stations were used: DeltaVision microscope with plate scanning regiment, Hermes imaging station (IDEA bio-Medical) or ImagExpress microXL imaging station (Molecular Devices) equipped by 40× air objectives. In all cases in order to cover the curvature of apical surface of epithelial monolayer 5 μm thick z-stack was acquired around the tight junction plane (identified by best focus algorithm) and resulting image was generated as a maximum projection of all optical sections.

[7] = system: tight junctions of Caco2 cells; test: Caco2 tight junction morphology (cingulin or ZO-1 staining, tortuosity); type: cell-based, human
Protocol: as §3, §4
Cell images were segmented using Morphological Segmentation ImageJ plug-in and junction tortuosity was calculated as a ratio between junction length and Euclidian distance between its ends.

[8] = system: Citrobacter rodentium; type: in vivo, mouse; conditions: putrescine oral gavage 200 mg/kg twice daily
Protocol: as §2
A kanamycin-resistant and luciferase-expressing derivative of Citrobacter rodentium DBS100 (ICC180) was used for infection as previously described (Thaiss et al., Science. 2018 Mar. 23; 359(6382):1376-1383).
Mice were infected with 200 μl solution containing approximately 1×10^9 colony-forming units (CFU) of overnight cultured bacteria by oral gavage. Infection was monitored by enumerating stool CFU and measuring abdominal bioluminescent. For in vivo bioluminescent imaging, mice were anesthetized and bioluminescence was measured using an IVIS2000 instrument and Living Image software (Perkin Elmer). For ex vivo luminescence quantification, the whole colons were dissected, extensively washed from all luminal contents, longitudinally cut open and immediately imaged. For CFU counts, stool or tissues were collected, weighed and homogenized in sterile phosphate buffered saline (PBS−/−). Homogenates were then serially diluted in PBS−/− and plated on LB kanamycin plates, incubated overnight at 37° C. Bacterial CFUs were counted the next day, normalizing them to the stool or tissue weight.

SMILES: O=CC[C@@H](O)[C@H](O)[C@H](O)CO [2-DG, 2-deoxyglucose]
- glucose-induced barrier aberrations in vitro [1]: rescued glucose-induced barrier aberrations in vitro in a dose-dependent manner
- systemic dissemination of microbial products [2]: prevented the systemic dissemination of microbial products
- detectable pathogen load in the mesenteric lymph nodes, spleens and livers ([3]; C. rodentium-infected db/db mice, 2-DG treatment): strongly reduced
- bacterial growth in the intestinal lumen ([3]; STZ-treated C. rodentium-infected mice, 2-DG treatment): unaffected
- enhanced C. rodentium growth and pathogenic translocation / host defense against C. rodentium ([3]; STZ-treated mice given the agent (insulin 0.25 U per day; 2-DG i.p. twice daily 5 mg)): restored host defense against C. rodentium
- transcriptional reprogramming of the epithelium [4]: blocked transcriptional reprogramming in STZ-treated mice

SMILES: NCCCCN [putrescine]
- effect in mice with DSS-induced colitis [5]: disruptive effect
- focal adhesions size [6]: increase of focal adhesions size
- recovery of the TJs after washout ([7]; CaCo2 cells pretreated 24 hrs with disruptor, then regular culture medium for 24 hours): partial recovery
- TJ structure after disruptor treatment ([7]; CaCo2 cells, 24 hrs, LPS 300 ng/ml, Histamine 10 mM, putrescine 1 mM): pronounced TJ disruption
- effect on tight junctions in metabolite screen ([7]; Caco2 cells): Disruption
- tight junction morphology ([7]; Caco2 cells, 10 mM acetyl-proline, 1 mM putrescine, 10 mM histamine, 5 mM spermine): distortion of tight junction morphology
- effect in mice with C. rodentium infection [8]: disruptive effect
